Results on 23 compounds are retold here after patent US8258306B2, “Glycine transporter-1 inhibitors” (Amgen Inc., priority 2007, dated 2012).

Structures can show the parent of a compound that is named as a salt.

The test has as its target T1, human glycine transporter type 1 (Gly-T1) (Homo sapiens, UniProt P48067).
T1 construct: JAR) cells endogenously expressing human glycine transporter type 1 (Gly-T1); endogenous in cells; host or cells: JAR human placental choriocarcinoma cells
T1 sequence (P48067 1-706): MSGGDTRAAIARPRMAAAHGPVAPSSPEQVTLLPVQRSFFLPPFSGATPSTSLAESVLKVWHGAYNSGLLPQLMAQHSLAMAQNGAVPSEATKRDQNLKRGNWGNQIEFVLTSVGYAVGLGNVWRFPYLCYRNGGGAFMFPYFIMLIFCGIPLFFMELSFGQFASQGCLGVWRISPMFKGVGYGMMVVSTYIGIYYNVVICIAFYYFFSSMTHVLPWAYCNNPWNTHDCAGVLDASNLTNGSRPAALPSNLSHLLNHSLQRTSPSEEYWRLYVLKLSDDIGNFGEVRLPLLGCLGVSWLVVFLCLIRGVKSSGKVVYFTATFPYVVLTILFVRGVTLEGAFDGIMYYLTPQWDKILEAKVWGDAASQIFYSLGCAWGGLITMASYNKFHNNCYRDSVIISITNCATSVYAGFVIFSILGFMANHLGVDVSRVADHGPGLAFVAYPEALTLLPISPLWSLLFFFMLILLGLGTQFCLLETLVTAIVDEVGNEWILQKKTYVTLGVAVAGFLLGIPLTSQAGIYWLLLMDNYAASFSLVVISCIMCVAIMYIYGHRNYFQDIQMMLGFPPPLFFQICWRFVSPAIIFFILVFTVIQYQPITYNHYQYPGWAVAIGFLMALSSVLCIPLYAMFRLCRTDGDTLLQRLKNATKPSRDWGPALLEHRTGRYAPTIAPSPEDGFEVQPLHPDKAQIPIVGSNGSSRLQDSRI
The test is described as follows: Glycine Transporter 1 (GlyT1) Uptake Assay, in vitro. The test is classed as cell-based. Conditions: inhibition of [14C] glycine uptake (5 μM) in JAR cells endogenously expressing GlyT1; approximate values. The method, then:
This cell-based assay measures the ability of test compounds to inhibit the uptake of glycine by the glycine transporter type 1. Human placental choriocarcinoma (JAR) cells endogenously expressing human glycine transporter type 1 (Gly-T1) were used for this assay. For uptake assays, JAR cells were cultured in 96-well cytostar T scintillating microplates (Amersham Biosciences) in RPMI 1640 medium containing 10% fetal bovine serum in the presence of penicillin (100 μg/ml) and streptomycin (100 μg/ml). Cells were plated at a density of 4×10^4 cells/well and grown at 37° C. in a humidified atmosphere of 5% CO2 for 24 h.
Culture medium was removed from Cytostar plate and JAR cells were incubated with 30 μl of Uptake buffer (120 mM NaCl, 2 mM KCl, 1 mM CaCl2, 1 mM MgCl2, 10 mM Hepes, 5 mM alanine, pH 7.5) with or without compound for 5 min. Then 30 μl of [^14C] glycine (101 mCi/mmol, obtained from Perkin Elmer) diluted in Uptake buffer was added to each well to give a final concentration of 5 μM. After incubation at room temperature for the desired time usually 1-2 h, sealed 96-well Cytostar plates were counted on a TopCount (Packard). Nonspecific uptake of [^14C] glycine was determined in the presence of 10 μM cold ALX-5407 (Sigma).
IC50 curves were generated from the raw data collected from the TopCount and fitted with a four-parameter logistic equation using in-house data analysis tool, Activity Base.
The IC50 is the midpoint of a concentration-inhibition curve. Lower therefore signals higher potency. Take `C[C@@H]1CN(C2CCCCc3ccccc32)CCN1CC(=O)O` (stereo partly drawn) [Cpd I-1, 2-((R)-2-methyl-4-(6,7,8,9-tetrahydro-5H-benzo[7]annulen-5-yl)-piperazin-1-yl)acetic acid]: half-maximal inhibition (IC50) was put at 258 nM.

`C[C@@H]1CN(C2CCc3ccc(Br)cc32)CCN1CC(=O)O` (stereo partly drawn) [Cpd I-3, 2-((R)-4-(6-bromo-2,3-dihydro-1H-inden-1-yl)-2-methyl-piperazin-1-yl)acetic acid] showed an IC50 of 1010 nM.

`C[C@@H]1CN(C2c3ccccc3CCc3ccccc32)CCN1CC(=O)O` [Cpd I-5] came in with an IC50 of 147 nM.

As for `C[C@@H]1CN(C2CCCCC2c2ccccc2)CCN1CC(=O)O` (stereo partly drawn) [Cpd I-6, 2-((R)-2-methyl-4-(2-phenylcyclohexyl)-piperazin-1-yl)acetic acid dihydrochloride], 1130 nM corresponded to half-maximal inhibition (IC50).

With `O=C(O)CN1CCC(N(c2ccccc2)c2cccc(C(F)(F)F)c2)CC1` [Cpd I-7, 2-(4-(phenyl(3-(trifluoromethyl)-phenyl)amino)piperidin-1-yl)-acetic acid], it took 393 nM to reach half-maximal inhibition (IC50).

In the case of `O=C(O)CN1CCC(C(c2ccccc2)c2ccccc2)CC1` [Cpd I-8, 2-(4-benzhydrylpiperidin-1-yl)acetic acid], the IC50 stood at 536 nM.

In the case of `O=C(O)CN1CCN(c2cccc3ccccc23)CC1` [Cpd I-9, 2-(4-naphth-1-ylpiperazin-1-yl)acetic acid], the concentration for half-maximal inhibition (IC50) was over 10000 nM.

With `C[C@@H]1CN(c2cccc3ccccc23)CCN1CC(=O)O` [Cpd I-10, (R)-2-(2-methyl-4-naphth-1-ylpiperazin-1-yl)acetic acid], inhibition was half-maximal at 953 nM (IC50).

Regarding `O=C(O)CN1CCN(c2c3ccccc3cc3ccccc23)CC1` [Cpd I-11, 2-(4-anthracen-9-ylpiperazin-1-yl)acetic acid], the IC50 is over 10000 nM.

As for `C[C@@H]1CN(c2c3ccccc3cc3ccccc23)CCN1CC(=O)O` [Cpd I-12, (R)-2-(4-anthracen-9-yl-2-methyl-piperazin-1-yl)acetic acid], the midpoint of inhibition, the IC50, lay at 687 nM.

With `O=C(O)CN1CCN(C2(c3ccccc3)CCCCC2)CC1` [Cpd I-13, 2-(4-(1-phenylcyclohexyl)piperazin-1-yl)acetic acid], the IC50 was over 10000 nM.

Compound `C[C@@H]1CN(C2(c3ccccc3)CCCCC2)CCN1CC(=O)O` [Cpd I-14, (R)-2-(2-methyl-4-(1-phenyl-cyclohexyl)-piperazin-1-yl)acetic acid] registered an IC50 of 1530 nM.

Consider `CC1CC(C(c2ccccc2)c2ccccc2)CCN1CC(=O)O` (centres unmarked) [Cpd I-15, 2-(4-benzhydryl-2-methyl-piperidin-1-yl)acetic acid], for which 52 nM corresponded to half-maximal inhibition (IC50).

Compound `O=C(O)CN1CCC(C(c2ccccc2)c2ccccc2C(F)(F)F)CC1` (centres unmarked) [Cpd I-16, 2-(4-(phenyl(2-(trifluoromethyl)-phenyl)-methyl)piperidin-1-yl)acetic acid] returned a 50% inhibitory concentration (IC50) of 3520 nM.

Compound `O=C(O)CN1CCC(N(c2ccccc2)c2ccc(C(F)(F)F)cc2)CC1` [Cpd I-22, 2-(4-(phenyl(4-(trifluoromethyl)phenyl)-amino)piperidin-1-yl)acetic acid] showed an IC50 of 129 nM.

Take `C[C@@H]1CN(C2(c3ccc(Cl)cc3)CCCCC2)CCN1CC(=O)O` [Cpd I-26, (R)-2-(4-(1-(4-chlorophenyl)cyclohexyl)-2-methylpiperazin-1-yl)acetic acid]: the IC50 amounted to 101 nM.

Regarding `O=C(O)CN1CCC(C2c3ccccc3-c3ccccc32)CC1` [Cpd I-28, 2-(4-(9H-fluoren-9-yl)piperidin-1-yl)acetic acid], the half-maximal inhibitory concentration (IC50) is over 10000 nM.

Regarding `O=C(O)CN1CCC(C2c3ccccc3Oc3ccccc32)CC1` [Cpd I-30, 2-(4-(9H-xanthen-9-yl)piperidin-1-yl)acetic acid], the IC50 amounted to 5320 nM.

The compound `O=C(O)CN1CCCC(C(c2ccccc2)c2ccc(C(F)(F)F)cc2)C1` (centres unmarked) [Cpd II-1, 2-(3-(phenyl(4-(trifluoromethyl)-phenyl)methyl)piperidin-1-yl)acetic acid] yielded an IC50 of 562 nM.

As for `O=C(O)CN1CCCC(N(c2ccccc2)c2ccc(C(F)(F)F)cc2)C1` (centres unmarked) [Cpd II-3, 2-(3-(phenyl(4-(trifluoromethyl)-phenyl)amino)piperidin-1-yl)acetic acid], inhibition was half-maximal at 296 nM (IC50).

`O=C(O)CN1CCCC(N(c2ccccc2)c2cccc(C(F)(F)F)c2)C1` (centres unmarked) [Cpd II-4, 2-(3-(phenyl(3-(trifluoromethyl)-phenyl)amino)piperidin-1-yl)acetic acid] came in with an IC50 of over 2000 nM.

Turning to `O=C(O)CN1CCC(N(c2ccccc2)c2ccc(C(F)(F)F)cc2)C1` (centres unmarked) [Cpd II-5, 2-(3-(phenyl(4-(trifluoromethyl)-phenyl)amino)pyrrolidin-1-yl)acetic acid], the IC50 came out at 18 nM.

With `O=C(O)CN1CCC(N(c2ccccc2)c2cccc(-c3cccnc3)c2)C1` (centres unmarked) [Cpd II-10, 2-(3-(phenyl(3-(pyridin-3-yl)-phenyl)amino)pyrrolidin-1-yl)acetic acid], 14 nM corresponded to half-maximal inhibition (IC50).
